Assay results: publication PMC7993375, “Discovery of novel quinoline-based analogues of combretastatin A-4 as tubulin polymerisation inhibitors with apoptosis inducing activity and potent anticancer effect” (Journal of Enzyme Inhibition and Medicinal Chemistry, 2021)
Read-outs that look alike come from different tables or passages of the source.

Experiments:
[1] = test system: MCF-7 cells; experiment: Annexin V/PI apoptotic assay; type: cell-based, human; conditions: for percentage of Annexin V-staining positive cells: 48 h, untreated 1%; for percentage of early and late apoptotic cells: 72 h, untreated 2%
Description: Apoptotic cell death was detected by flow cytometry using Annexin V and propidium iodide (PI). […] Cells were then harvested and prepared for flow cytometric analysis. Cells were washed in 1X binding buffer (20X binding buffer: 0.1 M HEPES, pH 7.4; 1.4 M NaCl; 25 mM CaCl2 diluted in dH2O) and incubated in the dark for 30 min on ice in Annexin V-containing binding buffer [1:100]. Cells were then washed once in binding buffer and then re-suspended in PI-containing binding buffer [1:1000]. Samples were analysed immediately using the BD accuri flow cytometer and prism software for analysis the data. Four populations are produced during the assay Annexin V and PI negative (Q4, healthy cells), Annexin V positive and PI negative (Q3, early apoptosis), Annexin V and PI positive (Q2, late apoptosis) and Annexin V negative and PI positive (Q1, necrosis).

[2] = test system: MCF-7 cells; experiment: Cell cycle analysis (PI, flow cytometry); type: cell-based, human; conditions: for percentage of cells in G0/G1 phase: control 57.3%
Description: MCF-7 cells were seeded at a density of 1 × 10^5 cells/well in 6-well plates and treated with CA-4 (50 nM) and compound 12c (50 and 250 nM) for 24, 48 and 72 h. The cells were collected by trypsinisation and centrifuged at 800×g for 15 min. Cells were washed twice with ice-cold PBS and fixed in ice-cold 70% ethanol overnight at −20 °C. Fixed cells were centrifuged at 800×g for 15 min and stained with 50 µg/mL of PI, containing 50 µg/mL of DNase-free RNase A, at 37 °C for 30 min. The DNA content of cells (10,000 cells/experimental group) was analysed by flow cytometer at 488 nm using a FACSCalibur flow cytometer (BD Biosciences, San Jose, CA) and all data were recorded and analysed using the CellQuest Software (Becton-Dickinson).

[3] = test system: caspase-9; experiment: Caspase-9 activation assay; type: cell-based, human
Description: The level of the anti-apoptotic marker and apoptotic marker BAX were assessed using Bcl-2 Elisa kit and human Bax ELISA Kit purchased from Zymed laboratories, invitrogen and Cloud-Clone Crop. (Katy, TX, USA), respectively, following the manufacturer’s instructions. Briefly, Treated MCF-7 cell lysate with 250 nM of compound 12c were prepared, and equal amount of cell lysates were loaded and propped with specific antibodies. The samples were measured and analysed at 450 nm in ROBONEK P2000 ELISA reader. In Vitro Caspase-9 Activation Assay was performed using human active caspase-9 Invitrogen EIA kit according to the manufacturer’s instructions. Compound 12c at concentrations of 50 and 250 nM and CA-4 (50 nM) were prepared in dH2O up to a final volume of 50 µL/well followed by addition of 5 µL of active caspase-9. Following, the cells were mixed and 50 µL of the Master Mix was added to each well and allowed to react at 37 °C for 1 h. The fluorescence intensity of the test samples was recorded and analysed in a fluorescence plate reader at 400 nm excitation and 505 nm emissions. All experiments were conducted in triplicates.

[4] = test system: MCF-7; experiment: MTT cell viability assay, MCF-7 breast adenocarcinoma cells; type: cell-based; conditions: Homo sapiens
Description: (§1) The four human tumour cell lines MCF-7, HCT-116, HL-60 and HeLa used in this study were obtained from the VACSERA (Giza, Egypt) cell culture unit that were originally acquired from ATCC (Manassas, VA, USA). All the human tumour cell lines were cultured in Dulbecco’s Modified Eagle’s Medium (DMEM) with 10% foetal bovine serum, 2 mM L-glutamine and 100 µg/mL penicillin/streptomycin. Cells were maintained at 37 °C in 5% CO2 in a humidified incubator. All cells were sub-cultured 3 times/week by trypsinisation using TrypLE Express (1X).
(§2) The quinoline compounds were evaluated for antiproliferative effect using the MTT viability assay of four cancer cell lines (MCF-7, HCT-116, HL-60 and HeLa) and normal breast cells MCF-10A to calculate the relative IC50 values for each compound. Cells were seeded in triplicate in 96-well plates at a density of 10 × 10^3 cells/ml in a total volume of 200 µl per well. 0.1% of DMSO was used as a vehicle control. Following, the cells were treated with 2 µl test compound (from stock solutions in ethanol) to furnish the concentration range of study, 1 nM to 50 µM, and re-incubated for a further 72 h. The culture medium was then removed, and the cells washed with 100 µL phosphate buffered saline (PBS) and 50 µL MTT added, to reach a final concentration of 1 mg/mL. Cells were incubated for 2 h in darkness at 37 °C. Solubilisation was begun through the addition of […] DMSO, and the cells maintained at room temperature in darkness for 20 min to ensure thorough colour diffusion before reading the absorbance. Plates were incubated for 72 h at 37 °C + 5% CO2. The MTT (5 mg/mL in PBS) was added and incubated for another 4 h, and the optical density was detected with a microplate reader at 570 nm. Results were expressed as percentage viability relative to vehicle control (100%). Dose response curves were plotted and IC50 values (concentration of drug resulting in 50% reduction in cell survival) were obtained using the commercial software package Prism (GraphPad Software, Inc., La Jolla, CA, USA). All the experiments were repeated in at least three independent experiments.

[5] = test system: tubulin (colchicine binding site); experiment: Colchicine site competitive binding assay ([3H]colchicine); conditions: tubulin 1 µM, colchicine 5 µM
Description: The affinity of compounds 12c to colchicine binding site was determined using Colchicine Site Competitive Assay kit CytoDYNAMIX Screen15 (Cytoskeleton, Inc., Denver, CO, USA) using the standard protocol of the manufacturer to determine Ki. Biotin-labelled tubulin ([…], PerkinElmer, Waltham, MA) and the test compounds (positive control colchicine, negative control vinblastine, G-1, fluorescent G-1, or 2-ME) in a 96-well plate (final volume: 100 µL). After incubating for 2 h at 37 °C with gentle shaking, streptavidin-labelled yttrium SPA beads (80 µg in 20 µL reaction buffer, PerkinElmer, Waltham, MA) were added to each well and incubated for 30 min at 4 °C. The plates were then read on a scintillation counter (Packard Instrument, Topcount Microplate Reader) and the percentage of inhibition was calculated[50]^,[51].

[6] = test system: HCT-116; experiment: MTT cell viability assay, HCT-116 colorectal carcinoma cells; type: cell-based; conditions: Homo sapiens, 72 h
Description: as §1, §2

[7] = MCF7, 72 h, read-out: IC50 value, MCF-7

`COc1cc(C2=NC(=Cc3cc4ccc(C)cc4nc3OC)C(=O)O2)cc(OC)c1OC` [Compound 12c, 4-[(2-Methoxy-7-methylquinolin-3-yl)methylene]-2–(3,4,5-trimethoxyphenyl) oxazol-5(4H)-one] was tested, and the “percentage of Annexin V-staining positive cells” value ([1]; 250 nM) was 21%, the “percentage of Annexin V-staining positive cells” value ([1]; concentration printed as 0 nM) was 15% and the “percentage of early and late apoptotic cells” value ([1]; concentration printed as 1 µM) was 17.6%. For the same molecule, the “percentage of early and late apoptotic cells” value ([1]; concentration printed as 5 µM) was 29.3%, the “percentage of cells in G2/M phase” value ([2]; 50 nM, 48 h, untreated 9.2%) was 28.4% and the “percentage of cells in G2/M phase” value ([2]; 50 nM, 72 h) was 33.0%. The “percentage of cells in G0/G1 phase” value ([2]; 50 nM, 72 h) was 40.3%, the “apoptosis, proportion of cells in sub-G1 phase” value (shortened to “apoptosis, proportion of cells”) ([2]; 250 nM, 24 h, untreated 1.5%) was 16.2% and the “apoptosis, proportion of cells” value ([2]; 250 nM, 48 h, untreated 1.5%) was 23.4%. The “percentage of cells in G2/M phase” value ([2]; 250 nM, 48 h, untreated 9.2%) was 38.3%, the “percentage of cells in G2/M phase” value ([2]; 250 nM, 72 h) was 40.8% and the “percentage of cells in G0/G1 phase” value ([2]; 250 nM, 72 h) was 29.8%. The “apoptosis, proportion of cells” value ([2]; 250 nM, 72 h, untreated 1.5%) was 32.7%, the “increase in caspase-9 activation” value ([3]; MCF-7, 50 nM) was “about 8 fold” and the “increase in caspase-9 activation” value ([3]; MCF-7, 250 nM) was about 16 fold. The IC50 [4, 7] was 10 ± 3 nM, the IC50 ([4]; MCF7, read-out: IC50, MCF-7) was 19 nM and the “Colchicine binding, % inhibition of [3H]colchicine binding” value (“Colchicine binding, % inhibition” for short) ([5]; 1 µM drug) was 79 ± 2%. For the same molecule, the “Colchicine binding, % inhibition” value ([5]; 5 µM drug) was 87 ± 1% and the IC50 [6] was 22 ± 1 nM.
`COc1ccc(/C=C\c2cc(OC)c(OC)c(OC)c2)cc1O` [CA-4, Combretastatin A-4] was tested, and the “percentage of Annexin V-staining positive cells” value ([1]; 50 nM) was 29%, the “apoptosis, proportion of cells” value ([2]; 50 nM, 24 h) was 23.5% and the “percentage of cells in G2/M phase” value ([2]; 50 nM, 24 h) was 40.3%. For the same molecule, the “apoptosis, proportion of cells” value ([2]; 50 nM, 48 h) was 31.1%, the “percentage of cells in G2/M phase” value ([2]; 50 nM, 48 h, untreated 9.2%) was 43.8% and the “apoptosis, proportion of cells” value ([2]; 50 nM, 72 h) was 37.4%. For the same molecule, the “percentage of cells in G2/M phase” value ([2]; 50 nM, 72 h) was 47.7%, the “increase in caspase-9 activation” value ([3]; MCF-7, 50 nM) was 14 fold and the IC50 [4, 7] was 19 ± 4 nM. The “Colchicine binding, % inhibition” value ([5]; 1 µM drug) was 86 ± 0.9%, the “Colchicine binding, % inhibition” value ([5]; 5 µM drug) was 97 ± 2% and the IC50 [6] was 26 ± 1 nM.
